From publication PMC4979595, “Pilot PET Study to Assess the Functional Interplay Between ABCB1 and ABCG2 at the Human Blood–Brain Barrier” (Clinical Pharmacology and Therapeutics, 2016)
Several values for one entry are separate records, joined by “and”; a condition that tells them apart may be missing. Identical values can stand only once. Like-named read-outs stand apart in the source and are kept apart here. Marks after values point to notes of the source that are not given here. Blank lines part the entries; values can stand above or below the compound they belong to.

Columns and labels:
[1] = Plasma time-activity curve AUC of radiotracers; conditions: c.421CC
Description: (§1) A whole brain gray matter region of interest was defined on individual magnetic resonance images acquired in all study participants (T1‐weighted Achieva 3.0T scanner; Philips Medical Systems, Best, The Netherlands) using the Hammersmith n30r83 3D maximum probability atlas of the human brain.43 In addition, the pituitary gland was manually delineated.

[2] = system: ABCB1 and ABCG2 at the human BBB; assay: PET brain distribution of radiotracers, baseline scan and scan during ABCB1 inhibition with tariquidar infusion; conditions: for K 1 / k 2 / k 3 / k 4: 2T4K model; for K 1 / k 2 / k 3 / k 4 / V T (2T4K) / V T (Logan): whole brain; for whole brain V T (Logan) lower than V T (Logan) in the pituitary gland: c.421CC subjects
Description: as §1

[3] = Radiolabeled metabolites / unchanged radiotracer in plasma during PET (solid-phase extraction); conditions: 60 minutes after injection, c.421CC subjects
[4] = Plasma protein binding by ultrafiltration; conditions: similar in baseline and ABCB1 inhibition scans, high nonspecific filter binding
in vitro = conditions: human, plasma
[5] = system: ABCB1 and ABCG2 at the human BBB; conditions: in vivo
Description: as §1

[6] = set-up: method as in earlier work; conditions: (R)-[^11C]verapamil group, no ABCG2 genotype available, data from previous study, cited from earlier work
[7] = Safety monitoring: adverse events during study participation; assay type: in vivo, human; conditions: relationship with tariquidar administration could not be excluded
Description: During the PET study, heart rate and blood pressure were repeatedly measured and recorded. In addition, clinical laboratory blood and urine tests were performed. Adverse events were recorded.

human ABCB1 [8] = target: T1, human ABCB1 (Homo sapiens, UniProt P08183); assay: cell-based
T1 sequence (P08183 whole entry): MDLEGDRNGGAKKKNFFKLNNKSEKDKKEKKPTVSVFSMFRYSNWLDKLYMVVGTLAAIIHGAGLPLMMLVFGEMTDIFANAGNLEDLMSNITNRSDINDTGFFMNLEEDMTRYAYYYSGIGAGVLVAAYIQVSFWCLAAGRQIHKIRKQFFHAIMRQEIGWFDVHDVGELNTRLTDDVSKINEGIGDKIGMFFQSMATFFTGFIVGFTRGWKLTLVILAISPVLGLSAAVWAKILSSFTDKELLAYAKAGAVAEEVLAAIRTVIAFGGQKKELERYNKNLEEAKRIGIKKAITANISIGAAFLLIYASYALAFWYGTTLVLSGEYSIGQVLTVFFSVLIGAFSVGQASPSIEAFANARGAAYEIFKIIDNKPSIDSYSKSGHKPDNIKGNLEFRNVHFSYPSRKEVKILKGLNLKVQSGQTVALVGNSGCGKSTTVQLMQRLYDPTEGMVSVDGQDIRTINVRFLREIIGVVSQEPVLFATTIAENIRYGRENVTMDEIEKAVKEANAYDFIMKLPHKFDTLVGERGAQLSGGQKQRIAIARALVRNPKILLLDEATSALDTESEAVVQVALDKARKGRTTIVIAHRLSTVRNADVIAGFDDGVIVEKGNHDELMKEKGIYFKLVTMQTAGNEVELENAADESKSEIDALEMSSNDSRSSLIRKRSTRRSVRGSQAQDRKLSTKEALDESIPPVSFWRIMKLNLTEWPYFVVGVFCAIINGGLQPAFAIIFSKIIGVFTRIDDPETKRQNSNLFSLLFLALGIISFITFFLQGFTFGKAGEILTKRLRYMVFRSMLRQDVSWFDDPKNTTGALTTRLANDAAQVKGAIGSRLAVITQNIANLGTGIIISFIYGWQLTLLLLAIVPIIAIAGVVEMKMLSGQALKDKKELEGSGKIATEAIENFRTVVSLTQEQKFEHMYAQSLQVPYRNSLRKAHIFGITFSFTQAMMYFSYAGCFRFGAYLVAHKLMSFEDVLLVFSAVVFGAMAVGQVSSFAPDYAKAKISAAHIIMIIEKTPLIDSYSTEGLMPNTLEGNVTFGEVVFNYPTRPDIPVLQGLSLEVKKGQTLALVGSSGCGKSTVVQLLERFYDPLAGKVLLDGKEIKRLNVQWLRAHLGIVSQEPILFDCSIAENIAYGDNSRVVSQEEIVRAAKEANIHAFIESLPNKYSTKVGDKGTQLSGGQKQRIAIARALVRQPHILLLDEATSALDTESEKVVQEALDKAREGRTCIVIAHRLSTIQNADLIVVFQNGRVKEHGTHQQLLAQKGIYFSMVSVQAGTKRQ

human ABCG2 = target: T2, human ABCG2 (Homo sapiens, UniProt Q9UNQ0); assay: In vitro uptake assay in MDCK-ABCG2 cells: tariquidar inhibition of ABCG2-mediated transport; assay type: cell-based; conditions: for IC50: IC50 of tariquidar for inhibition of ABCG2 transport, 120 min uptake
T2 construct: P. Borst and Dr. A. Schinkel (Netherlands Cancer Institute); host or cells: MDCK-II (MDCK-ABCG2)
T2 sequence (Q9UNQ0 1-655): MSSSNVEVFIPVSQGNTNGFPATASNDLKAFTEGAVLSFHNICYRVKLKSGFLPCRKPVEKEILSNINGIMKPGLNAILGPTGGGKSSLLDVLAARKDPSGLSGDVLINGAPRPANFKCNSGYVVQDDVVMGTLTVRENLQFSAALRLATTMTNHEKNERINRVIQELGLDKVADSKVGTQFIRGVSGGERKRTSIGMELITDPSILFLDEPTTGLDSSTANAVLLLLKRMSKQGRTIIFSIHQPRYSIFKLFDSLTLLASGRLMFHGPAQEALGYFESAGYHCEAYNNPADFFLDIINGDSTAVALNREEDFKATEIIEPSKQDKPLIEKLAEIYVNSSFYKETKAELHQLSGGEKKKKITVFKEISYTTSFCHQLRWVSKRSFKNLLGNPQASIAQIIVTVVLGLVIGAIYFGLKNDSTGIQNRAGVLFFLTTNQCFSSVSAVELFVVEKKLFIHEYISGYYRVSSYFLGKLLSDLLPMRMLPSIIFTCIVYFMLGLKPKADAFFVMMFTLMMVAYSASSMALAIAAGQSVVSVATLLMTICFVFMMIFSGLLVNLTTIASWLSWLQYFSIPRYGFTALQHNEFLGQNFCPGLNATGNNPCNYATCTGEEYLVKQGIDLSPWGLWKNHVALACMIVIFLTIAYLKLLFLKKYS
Description: LLC‐PK1 cells transduced with human ABCB1 (LLC‐ABCB1) and MDCK‐II cells transduced with human ABCG2 (MDCK‐ABCG2) were kindly provided by Prof. P. Borst and Dr. A. Schinkel (Netherlands Cancer Institute, Amsterdam, Netherlands). Culturing of the cells and testing of vincristine sulfate resistance (0.64 μmol/L) for LLC‐ABCB1 cells and mitoxantrone resistance (20 μmol/L) for MDCK‐ABCG2 cells was performed as described previously.46
Cells were seeded with a density of 0.3 × 10^6 cells/cm^2 on 96‐well plates (white Isoplates for liquid scintillation counting, Perkin Elmer, Rodgau, Germany). Then 5–7 days after the cells reached 100% confluence, the experiment was initiated with 1‐hour preincubation at 37°C, 5% carbon dioxide, and 95% humidity, for which culture medium was replaced by serum‐free Opti‐MEM (Gibco/Life Technologies, Darmstadt, Germany). […] After 120 minutes (37°C, 5% carbon dioxide, 95% humidity), cells were transferred on ice, washed twice with ice‐cold phosphate‐buffered saline before lysis buffer (25 mmol/L Tris, pH 8, 50 mmol/L sodium chloride, 0.5% (w/v) deoxycholic acid, 0.5% (w/v) Triton X‐100) supplemented with complete protease inhibitor (Roche, Mannheim, Germany) was added and protein concentrations in the respective wells were determined by using the Pierce BCA Protein Assay kit (ThermoScientific, Pittsburgh, PA).
With Prism 6.0 software (GraphPad Software, La Jolla, CA), a sigmoidal model with variable slope was used to analyze concentration–response relationships by nonlinear regression.

ABCB1 at the human BBB = system: ABCB1 at the human BBB; set-up: method as in PMID 25669913; conditions: tariquidar plasma concentration; previously estimated; read-out: in vivo IC50 for inhibition of ABCB1 transport of (R)-[^11C]verapamil at the human BBB; cited from earlier work
human ABCB1 [9] = target: T1, human ABCB1
[10] = Tariquidar plasma concentrations during second PET scan (LC-MS/MS)

AUC ABCB1 inhibition (plasma time-activity curve) ([1]; 0 to 60 min): 46.9 ± 8.0 SUV x min | AUC baseline (plasma time-activity curve) ([1]; 0 to 60 min): 37.2 ± 6.2 SUV x min | % change over baseline (plasma AUC) [1]: 27 ± 12% | K 1 ([2]; c.421CC ABCB1 inhibition): 0.013 ± 0.005 (8) mL/(g x min) | k 2 ([2]; c.421CC ABCB1 inhibition): 0.302 ± 0.250 (31) 1/min | k 3 ([2]; c.421CC ABCB1 inhibition): 0.198 ± 0.050 (21) 1/min | k 4 ([2]; c.421CC ABCB1 inhibition): 0.016 ± 0.003 (13) 1/min | K 1 ([2]; c.421CC baseline): 0.006 ± 0.002 (9) mL/(g x min) | k 2 ([2]; c.421CC baseline): 0.135 ± 0.050 (33) 1/min | k 3 ([2]; c.421CC baseline): 0.148 ± 0.040 (22) 1/min | k 4 ([2]; c.421CC baseline): 0.015 ± 0.004 (17) 1/min | whole brain V T (Logan) lower than V T (Logan) in the pituitary gland ([2]; scan 1 (baseline)): 13.2 ± 4.6 fold | whole brain V T (Logan) lower than V T (Logan) in the pituitary gland ([2]; scan 2 (ABCB1 inhibition)): 7.9 ± 2.1 fold | baseline whole brain V T (Logan) lower in humans than in rats ([2]; comparison with a previous preclinical study): ~2 fold | V T (Logan) in the pituitary gland during tariquidar infusion as compared with baseline scans ([2]; pituitary gland): not significantly different | increase in V T (Logan) in scan 2 ([2]; single c.421CA subject with the highest increase (scanned with both radiotracers)): 2.3 fold | V T (2T4K) ([2]; c.421CC ABCB1 inhibition): 0.676 ± 0.111 (6) | V T (Logan) ([2]; c.421CC ABCB1 inhibition): 0.658 ± 0.098 (9) | V T (2T4K) ([2]; c.421CC baseline): 0.492 ± 0.051 (9) | V T (Logan) ([2]; c.421CC baseline): 0.478 ± 0.027 (6) | percentage of unchanged radiotracer in plasma ([3]; baseline scans): 94.6 ± 2.3% | percentage of unchanged radiotracer in plasma ([3]; second PET scan (tariquidar infusion)): 94.7 ± 1.1% | Plasma protein binding [4]: > 99%
Structure (SMILES): COc1cc2c(cc1OC)CN(CCc1ccc(NC(=O)c3cccc4c(=O)c5cccc(OC)c5[nH]c34)cc1)CC2 [[^11C]elacridar]

fraction unbound (in vitro): < 0.01 | baseline whole brain V T (Logan) lower in humans than in rats ([5]; human compared with rat): ~2 fold | V T (Logan) ([5]; human): 0.40 | increase in V T (Logan) in scan 2 ([5]; human): 3.1 fold
Structure (SMILES): COc1cc2c(cc1OC)CN(CCc1ccc(NC(=O)c3cc(OC)c(OC)cc3NC(=O)c3cnc4ccccc4c3)cc1)CC2 [[^11C]tariquidar]

IC50 (human ABCB1 [8]): 29.5 nM | IC50 (human ABCG2; [^3H]elacridar (1 nmol/L) as substrate): 813 nM | IC50 (human ABCG2; [^3H]tariquidar (1 nmol/L) as substrate): 310 nM | Hill slope (human ABCG2; [^3H]elacridar as substrate): 1.1 | Hill slope (human ABCG2; [^3H]tariquidar as substrate): 1.1 | IC50 (human ABCB1 [9]): 17.1 nM | Tariquidar plasma concentration during the PET scan (average of three determinations) ([10]; [^11C]elacridar group, c.421CC, i.v. infusion, total dose 5.7 ± 0.8 mg/kg): 2.6 ± 0.5 µmol/L | Tariquidar plasma concentration at the time of PET ([10]; [^11C]tariquidar group, c.421CA, i.v. infusion): 3.2 ± 0.4 µmol/L | Tariquidar concentration in plasma of individual subjects ([10]; end of PET, [^11C]elacridar c.421CA): 2.22 µmol/L | Tariquidar concentration in plasma of individual subjects ([10]; middle of PET, [^11C]elacridar c.421CA): 2.23 µmol/L | Tariquidar concentration in plasma of individual subjects ([10]; start of PET, [^11C]elacridar c.421CA): 1.94 ^a µmol/L
Structure (SMILES): COc1cc2c(cc1OC)CN(CCc1ccc(NC(=O)c3cc(OC)c(OC)cc3NC(=O)c3cnc4ccccc4c3)cc1)CC2 [tariquidar]
Tariquidar concentration in plasma of individual subjects ([6]; end of PET): 3.76 µmol/L and 2.52 µmol/L and 4.11 µmol/L and 2.83 µmol/L and 3.38 µmol/L | Tariquidar concentration in plasma of individual subjects ([6]; middle of PET): 3.61 µmol/L and 2.71 µmol/L and 3.88 µmol/L and 2.85 µmol/L and 2.56 µmol/L | Tariquidar concentration in plasma of individual subjects ([6]; start of PET): 2.81 µmol/L and 1.70 µmol/L and 2.36 µmol/L and 1.91 µmol/L and 2.11 µmol/L | Adverse event: abdominal cramps and vomiting [7]: one | Adverse event: collapse [7]: four | Adverse event: dizziness [7]: two | Adverse event: dysgeusia [7]: 10 subjects | Adverse event: headache [7]: three | Adverse event: phlebitis [7]: three | IC50 (ABCB1 at the human BBB): 2300 ± 1000 nM | Tariquidar concentration in plasma of individual subjects ([10]; end of PET, [^11C]elacridar c.421CC): 2.45 µmol/L and 1.98 µmol/L and 2.58 µmol/L and 2.72 µmol/L and 4.03 µmol/L | Tariquidar concentration in plasma of individual subjects ([10]; end of PET, [^11C]tariquidar c.421CA): 3.67 µmol/L and 3.18 µmol/L and 2.24 µmol/L and 3.08 µmol/L and 3.79 µmol/L | Tariquidar concentration in plasma of individual subjects ([10]; end of PET, [^11C]tariquidar c.421CC): 2.71 µmol/L and 2.78 µmol/L and 3.13 µmol/L and 3.70 µmol/L | Tariquidar concentration in plasma of individual subjects ([10]; middle of PET, [^11C]elacridar c.421CC): 2.33 µmol/L and 2.55 µmol/L and 2.71 µmol/L and 2.43 µmol/L and 3.73 µmol/L | Tariquidar concentration in plasma of individual subjects ([10]; middle of PET, [^11C]tariquidar c.421CA): 3.93 µmol/L and 3.55 µmol/L and 3.31 µmol/L and 2.86 µmol/L and 3.57 µmol/L | Tariquidar concentration in plasma of individual subjects ([10]; middle of PET, [^11C]tariquidar c.421CC): 2.68 µmol/L and 2.09 µmol/L and 2.95 µmol/L and 2.70 µmol/L and 2.65 µmol/L | Tariquidar concentration in plasma of individual subjects ([10]; start of PET, [^11C]elacridar c.421CC): 2.67 µmol/L and 1.83 µmol/L and 1.71 µmol/L and 2.74 µmol/L and 2.73 µmol/L | Tariquidar concentration in plasma of individual subjects ([10]; start of PET, [^11C]tariquidar c.421CA): 3.70 µmol/L and 2.61 µmol/L and 2.87 ^a µmol/L and 2.47 µmol/L and 2.80 µmol/L | Tariquidar concentration in plasma of individual subjects ([10]; start of PET, [^11C]tariquidar c.421CC): 2.91 µmol/L and 2.17 µmol/L and 2.65 µmol/L and 2.67 µmol/L and 2.64 µmol/L
